The values below are quoted from earlier work in patent publication US20050074443A1, “Methods of attenuating autoimmune disease and compositions useful therefor” (priority 2003, published 2005).

The series has as its system experimental autoimmune encephalomyelitis. The note with it: exogenous administration, mouse model.

For `C=C1/C(=C\C=C2/CCC[C@]3(C)[C@@H]([C@H](C)CCCC(C)(C)O)CC[C@@H]23)C[C@@H](O)C[C@@H]1O` [1,25-dihydroxyvitamin D3], the “effect on experimental autoimmune encephalomyelitis” value is on record as “can prevent experimental autoimmune encephalomyelitis”.
